Measurements reported in patent US6623728B2, “Cosmetic skin care compositions and containing gum mastic” (Unilever Home & Personal Care USA Division of Conopco, Inc., priority 2000, dated 2003).

Experiments:
[1] = tested on: glycosaminoglycan synthesis; experiment: Glycosaminoglycan synthesis; type: cell-based; conditions: positive control, concentration not given
procollagen I = experiment: Procollagen I production by fibroblasts (slot blot); type: cell-based, human; conditions: positive control, head says (0.01%)
Description: This example measured production of procollagen I by fibroblasts in response to treatment with gum mastic in solvent solutions, as well as control solutions.
Gum mastic solubilized in ethanol solvent (“gum mastic”), and obtained from Sigma were tested.
Neonatal human dermal fibroblasts were purchased from Clonetics Corp., San Diego, Calif. All materials for cell culture were purchased from Life Technologies, NY and used in passages 5-10. Cells were seeded at a density of approximately 7,500/well in the inner 48 wells of a 96-well plate in a medium containing DMEM (Dulbecco's Modified Eagle's Medium), high-glucose supplemented with 2 mM L-glutamine, 10% fetal bovine serum, and antibiotic and antimycotic solutions). Cells were then grown to confluence for 2 days. At confluence, the medium was removed and cells were washed with serum-free DMEM, and each well dosed with 200 μl of a solution of gum mastic in serum-free DMEM. Each dosing was replicated in the total of six wells. […]
The membrane was stained until color developed and the reaction stopped with 2 washes for 10 minutes in tap water. […] Blot was scanned on Bio-Rad GS-700 Image Analysis densitometer and volume (OD*mm^2) of color/slot determined using molecular analysis software. Fold increase was calculated as a ratio of densitometer reading for cells treated with a gum mastic concentration over control.

human sebocytes = experiment: Inhibition of sebocyte lipogenesis (14C-acetate incorporation); type: cell-based; conditions: 0.00035%; 14C-acetate label in sebocytes, 20 h + 4 h incubation
Description: Secondary cultures of human sebocytes obtained from an adult […] were grown in 48-well tissue culture plates (Costar Corp.; Cambridge, Mass.) until confluent. Sebocyte growth medium consisted of Clonetics Keratinocyte Basal Medium (KBM) supplemented with 14 μg/ml bovine pituitary extract, 0.4 μg/ml hydrocortisone, 5 μg/ml insulin, 10 ng/ml epidermal growth factor, 1.2×10^−10 M cholera toxin, 100 units/ml penicillin, and 100 μg/ml streptomycin. All cultures were incubated at 37° C. in the presence of 7.5% CO2. Medium was changed three times per week.
On the day of experimentation, the growth medium was removed and the sebocytes washed three times with sterile Dulbecco's Modified Eagle Medium (DMEM; phenol red free). Fresh DMEM was added to each sample (triplicates) with 5 μL of gum mastic solubilized in ethanol. Controls consisted of addition of ethanol alone to phenol red. Each plate was returned to the incubator for 20 hours followed by the addition of ^14C-acetate buffer (5 mM final concentration, 56 mCi/mmol specific activity). […] Radioactive label remaining in the sebocytes was harvested and counted using a Beckman scintillation counter. […]
Controls consisted of ethanol alone and phenol red, which has estrogen-like activity. Statistical significance was calculated using the student's T-test.

Row | Compound | Fold increase over control [1] [fold] | Average OD Reading ([1]; control 4531.8) | Fold increase over control (procollagen I) [fold] | Average OD Reading (procollagen I; densitometer volume OD*mm^2, control 5400.5) | % Reduction (human sebocytes) [%]
1 | TGF-b | 1.4 | 6382.3 | 1.4 | 7499.8 | –
2 | O=S1(=O)OC(c2ccc(O)cc2)(c2ccc(O)cc2)c2ccccc21 [Phenol Red] | – | – | – | – | 29.1
